Measured values reported in ChEMBL document CHEMBL5696439 (Cancer Res, 2010).
Activity calls are given as the source filed them. The calls are words filed in the database; no cut-off is given here.

Tests used:
[1] = biological target: Serine/threonine-protein kinase ATR (Homo sapiens, UniProt Q13535); assay: Inhibition of ATR (unknown origin) using glutathione S-transferase-p53 as substrate by DELFIA
[2] = biological target: Tyrosine-protein kinase Blk (Homo sapiens) (UniProt P51451); assay: Inhibition of recombinant human full-length His-tagged BLK expressed in insect cells at 2 uM using Tyr 01 as substrate measured after 1 hr by Z'-LYTE assay relative to control; conditions: Insect cell
Sequence of Tyrosine-protein kinase Blk (Homo sapiens) (P51451 2-505 limits assumed): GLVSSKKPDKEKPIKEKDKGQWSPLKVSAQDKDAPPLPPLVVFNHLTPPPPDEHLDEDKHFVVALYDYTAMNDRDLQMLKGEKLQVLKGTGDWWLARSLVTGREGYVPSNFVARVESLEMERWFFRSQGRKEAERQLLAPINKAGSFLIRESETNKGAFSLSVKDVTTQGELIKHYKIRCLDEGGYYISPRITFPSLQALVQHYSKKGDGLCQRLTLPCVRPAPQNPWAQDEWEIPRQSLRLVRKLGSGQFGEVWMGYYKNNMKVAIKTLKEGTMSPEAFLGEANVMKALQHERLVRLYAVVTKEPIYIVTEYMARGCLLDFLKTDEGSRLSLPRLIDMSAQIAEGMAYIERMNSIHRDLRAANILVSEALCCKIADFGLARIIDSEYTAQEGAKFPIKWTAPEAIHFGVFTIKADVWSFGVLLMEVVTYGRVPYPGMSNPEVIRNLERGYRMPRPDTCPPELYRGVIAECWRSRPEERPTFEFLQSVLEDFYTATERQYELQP

[3] = biological target: Dual specificity tyrosine-phosphorylation-regulated kinase 1A (Homo sapiens) (UniProt Q13627); assay: Inhibition of recombinant human full-length GST-tagged DYRK1A expressed in insect cells at 2 uM using Ser/Thr 18 as substrate measured after 1 hr by Z'-LYTE assay relative to control; conditions: Insect cell
[4] = biological target: Tyrosine-protein kinase FRK (Homo sapiens) (UniProt P42685); assay: Inhibition of recombinant human full-length GST-tagged FRK expressed in baculovirus expression system at 2 uM using Tyr 01 as substrate measured after 1 hr by Z'-LYTE assay relative to control
[5] = biological target: Homeodomain-interacting protein kinase 4 (Homo sapiens) (UniProt Q8NE63); assay: Inhibition of recombinant human full-length GST-tagged HIPK4 expressed in insect cells at 2 uM using Ser/Thr 18 as substrate measured after 1 hr by Z'-LYTE assay relative to control; conditions: Insect cell
Sequence of Homeodomain-interacting protein kinase 4 (Homo sapiens) (Q8NE63 whole entry, the tested form may be a part): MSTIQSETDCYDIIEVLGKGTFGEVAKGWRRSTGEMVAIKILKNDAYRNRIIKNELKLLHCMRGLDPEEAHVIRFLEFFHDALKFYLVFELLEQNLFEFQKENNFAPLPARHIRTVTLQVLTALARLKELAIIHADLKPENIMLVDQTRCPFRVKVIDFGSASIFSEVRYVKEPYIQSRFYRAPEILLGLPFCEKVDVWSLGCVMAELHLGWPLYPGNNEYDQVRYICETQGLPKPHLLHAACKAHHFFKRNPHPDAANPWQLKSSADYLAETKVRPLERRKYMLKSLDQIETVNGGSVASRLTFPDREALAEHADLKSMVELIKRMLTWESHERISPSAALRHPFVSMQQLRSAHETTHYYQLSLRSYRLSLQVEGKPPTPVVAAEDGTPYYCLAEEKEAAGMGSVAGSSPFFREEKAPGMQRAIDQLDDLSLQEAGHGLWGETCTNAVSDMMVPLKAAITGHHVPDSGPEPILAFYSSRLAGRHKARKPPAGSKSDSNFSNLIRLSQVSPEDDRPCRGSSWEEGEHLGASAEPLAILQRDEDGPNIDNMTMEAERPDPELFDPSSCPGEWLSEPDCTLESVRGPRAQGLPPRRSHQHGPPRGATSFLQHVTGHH

[6] = biological target: Insulin-like growth factor 1 receptor (Homo sapiens) (UniProt P08069); assay: Inhibition of recombinant human His-tagged IGF1R (960-1397 residues) expressed in baculovirus expression system at 2 uM using Tyr 01 as substrate measured after 1 hr by Z'-LYTE assay relative to control
Sequence of Insulin-like growth factor 1 receptor (Homo sapiens) (P08069 31-736 limits assumed): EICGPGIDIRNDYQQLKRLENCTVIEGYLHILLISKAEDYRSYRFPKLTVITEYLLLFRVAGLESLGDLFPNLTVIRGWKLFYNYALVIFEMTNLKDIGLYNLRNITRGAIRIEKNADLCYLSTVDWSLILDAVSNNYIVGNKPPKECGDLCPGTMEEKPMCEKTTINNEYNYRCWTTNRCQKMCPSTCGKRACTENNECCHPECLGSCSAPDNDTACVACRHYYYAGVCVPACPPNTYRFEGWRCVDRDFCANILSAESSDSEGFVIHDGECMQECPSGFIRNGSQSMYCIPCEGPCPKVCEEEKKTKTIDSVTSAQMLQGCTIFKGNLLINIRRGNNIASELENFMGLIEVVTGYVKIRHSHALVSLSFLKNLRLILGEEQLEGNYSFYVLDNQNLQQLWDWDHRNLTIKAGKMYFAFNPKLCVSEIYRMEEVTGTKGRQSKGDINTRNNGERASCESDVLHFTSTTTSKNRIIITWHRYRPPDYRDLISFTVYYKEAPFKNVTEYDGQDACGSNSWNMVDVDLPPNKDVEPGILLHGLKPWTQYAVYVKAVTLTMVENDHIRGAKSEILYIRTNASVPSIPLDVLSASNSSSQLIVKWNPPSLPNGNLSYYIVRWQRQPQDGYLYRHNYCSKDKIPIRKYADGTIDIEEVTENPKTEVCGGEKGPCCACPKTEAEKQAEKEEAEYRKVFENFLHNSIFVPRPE
Sequence of Insulin-like growth factor 1 receptor (Homo sapiens) (P08069 741-1367 limits assumed): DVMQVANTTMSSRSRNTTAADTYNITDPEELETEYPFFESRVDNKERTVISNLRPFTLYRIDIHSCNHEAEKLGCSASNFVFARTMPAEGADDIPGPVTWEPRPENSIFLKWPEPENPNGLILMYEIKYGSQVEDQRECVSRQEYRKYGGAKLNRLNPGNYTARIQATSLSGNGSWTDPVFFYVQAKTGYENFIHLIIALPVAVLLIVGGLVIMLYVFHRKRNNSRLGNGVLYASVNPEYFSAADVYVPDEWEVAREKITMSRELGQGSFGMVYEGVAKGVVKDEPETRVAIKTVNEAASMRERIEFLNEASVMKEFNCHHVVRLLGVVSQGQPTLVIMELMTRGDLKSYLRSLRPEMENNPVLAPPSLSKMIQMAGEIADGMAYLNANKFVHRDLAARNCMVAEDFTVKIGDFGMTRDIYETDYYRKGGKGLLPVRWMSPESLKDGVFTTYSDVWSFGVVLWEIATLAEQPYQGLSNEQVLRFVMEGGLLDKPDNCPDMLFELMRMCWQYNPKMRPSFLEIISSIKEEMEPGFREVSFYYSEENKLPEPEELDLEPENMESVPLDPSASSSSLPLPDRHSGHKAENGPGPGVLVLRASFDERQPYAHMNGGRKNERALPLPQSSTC

[7] = system: Tyrosine-protein kinase JAK2 (Homo sapiens), O60674 [V617F]; assay: Inhibition of recombinant human GST-tagged JAK2 JH1 JH2 domains V617F mutant (532-1132 residues) expressed in insect cells at 2 uM using Tyr 06 as substrate measured after 1 hr by Z'-LYTE assay relative to control; conditions: Insect cell
Sequence of Tyrosine-protein kinase JAK2 (Homo sapiens), O60674 [V617F] (O60674 whole entry V617F, the tested form may be a part): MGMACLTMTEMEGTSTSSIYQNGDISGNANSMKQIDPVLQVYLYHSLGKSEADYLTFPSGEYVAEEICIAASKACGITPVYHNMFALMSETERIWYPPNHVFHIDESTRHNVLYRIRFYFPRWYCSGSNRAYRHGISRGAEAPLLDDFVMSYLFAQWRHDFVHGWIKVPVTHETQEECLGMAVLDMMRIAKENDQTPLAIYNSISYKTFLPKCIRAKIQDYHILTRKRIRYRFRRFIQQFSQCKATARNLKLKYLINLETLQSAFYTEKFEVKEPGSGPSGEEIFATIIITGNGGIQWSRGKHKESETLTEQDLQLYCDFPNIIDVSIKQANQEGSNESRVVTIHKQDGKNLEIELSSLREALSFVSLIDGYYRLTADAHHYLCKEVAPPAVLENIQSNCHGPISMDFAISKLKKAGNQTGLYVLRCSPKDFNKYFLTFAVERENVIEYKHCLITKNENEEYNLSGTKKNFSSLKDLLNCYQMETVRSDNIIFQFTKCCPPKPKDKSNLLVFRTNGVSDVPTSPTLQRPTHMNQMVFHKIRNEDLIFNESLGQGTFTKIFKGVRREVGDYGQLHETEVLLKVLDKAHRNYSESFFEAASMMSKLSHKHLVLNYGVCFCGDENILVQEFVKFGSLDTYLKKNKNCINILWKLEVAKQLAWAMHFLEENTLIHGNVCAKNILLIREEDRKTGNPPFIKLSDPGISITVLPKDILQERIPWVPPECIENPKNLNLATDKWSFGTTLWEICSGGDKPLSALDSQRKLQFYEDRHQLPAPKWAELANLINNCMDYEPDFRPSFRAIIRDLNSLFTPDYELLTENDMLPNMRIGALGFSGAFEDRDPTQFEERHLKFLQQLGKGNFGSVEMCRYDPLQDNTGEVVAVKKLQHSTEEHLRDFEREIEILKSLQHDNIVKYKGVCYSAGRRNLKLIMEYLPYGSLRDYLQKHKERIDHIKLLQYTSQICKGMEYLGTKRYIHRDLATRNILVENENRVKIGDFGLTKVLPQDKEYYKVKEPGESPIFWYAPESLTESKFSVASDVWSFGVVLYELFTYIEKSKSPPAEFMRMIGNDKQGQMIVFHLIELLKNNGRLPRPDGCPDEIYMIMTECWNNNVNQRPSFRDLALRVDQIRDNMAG

[8] = biological target: Serine/threonine-protein kinase MARK1 (Homo sapiens) (UniProt Q9P0L2); assay: Inhibition of recombinant human full length GST-tagged MARK1 expressed in baculovirus expression system at 2 uM using Ser/Thr 21 as substrate measured after 1 hr by Z'-LYTE assay relative to control
[9] = biological target: Serine/threonine-protein kinase 26 (Homo sapiens) (UniProt Q9P289); assay: Inhibition of recombinant human full length GST-tagged MST4 expressed in insect cells at 2 uM using Ser/Thr 07 as substrate measured after 1 hr by Z'-LYTE assay relative to control; conditions: Insect cell
[10] = biological target: Serine/threonine-protein kinase Nek2 (Homo sapiens) (UniProt P51955); assay: Inhibition of recombinant human full length His-tagged NEK2 expressed in baculovirus expression system at 2 uM using Ser/Thr 07 as substrate measured after 1 hr by Z'-LYTE assay relative to control
[11] = biological target: Serine/threonine-protein kinase Nek7 (Homo sapiens) (UniProt Q8TDX7); assay: Inhibition of recombinant human His-tagged NEK7 (8-313 residues) expressed in insect cells at 2 uM using Ser/Thr 22 as substrate measured after 1 hr by Z'-LYTE assay relative to control; conditions: Insect cell
Sequence of Serine/threonine-protein kinase Nek7 (Homo sapiens) (Q8TDX7 whole entry, looked up, the tested form may be a part): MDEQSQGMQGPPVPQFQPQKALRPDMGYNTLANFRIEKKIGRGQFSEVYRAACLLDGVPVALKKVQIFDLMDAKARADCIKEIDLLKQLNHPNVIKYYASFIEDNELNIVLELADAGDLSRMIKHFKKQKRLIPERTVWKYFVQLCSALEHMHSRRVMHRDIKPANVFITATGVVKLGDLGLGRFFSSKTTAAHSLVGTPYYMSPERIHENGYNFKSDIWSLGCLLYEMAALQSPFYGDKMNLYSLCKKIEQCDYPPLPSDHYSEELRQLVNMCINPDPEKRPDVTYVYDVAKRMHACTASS

[12] = biological target: Serine/threonine-protein kinase Nek9 (Homo sapiens) (UniProt Q8TD19); assay: Inhibition of recombinant human GST-tagged NEK9 (347-732 residues) expressed in insect cells at 2 uM using Ser/Thr 07 as substrate measured after 1 hr by Z'-LYTE assay relative to control; conditions: Insect cell
[13] = biological target: Serine/threonine-protein kinase PLK2 (Homo sapiens) (UniProt Q9NYY3); assay: Inhibition of recombinant human full length GST-tagged PLK2 expressed in baculovirus expression system at 2 uM using Ser/Thr 16 as substrate measured after 1 hr by Z'-LYTE assay relative to control
Sequence of Serine/threonine-protein kinase PLK2 (Homo sapiens) (Q9NYY3 whole entry, looked up, the tested form may be a part): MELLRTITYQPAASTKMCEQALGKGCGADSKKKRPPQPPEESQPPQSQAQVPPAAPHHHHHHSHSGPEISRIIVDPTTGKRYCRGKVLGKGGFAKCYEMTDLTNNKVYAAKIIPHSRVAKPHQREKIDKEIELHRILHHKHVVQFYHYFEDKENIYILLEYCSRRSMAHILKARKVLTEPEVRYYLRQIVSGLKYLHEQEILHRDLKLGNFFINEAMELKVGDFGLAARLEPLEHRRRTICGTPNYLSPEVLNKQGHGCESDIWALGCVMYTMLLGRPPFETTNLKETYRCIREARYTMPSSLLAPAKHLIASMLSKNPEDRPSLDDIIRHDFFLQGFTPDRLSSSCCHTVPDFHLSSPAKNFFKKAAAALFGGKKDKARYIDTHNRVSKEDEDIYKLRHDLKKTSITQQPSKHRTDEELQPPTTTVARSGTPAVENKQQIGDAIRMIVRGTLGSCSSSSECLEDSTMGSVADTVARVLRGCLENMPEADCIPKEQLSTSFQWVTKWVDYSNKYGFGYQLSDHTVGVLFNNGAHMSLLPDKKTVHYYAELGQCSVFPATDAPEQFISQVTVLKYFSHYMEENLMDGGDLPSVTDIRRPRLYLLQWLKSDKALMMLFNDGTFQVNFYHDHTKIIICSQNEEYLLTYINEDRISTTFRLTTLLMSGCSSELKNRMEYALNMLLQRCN

[14] = biological target: Proto-oncogene tyrosine-protein kinase ROS (Homo sapiens) (UniProt P08922); assay: Inhibition of recombinant human GST-tagged ROS1 (1883-2347 residues) expressed in insect cells at 2 uM using Tyr 01 as substrate measured after 1 hr by Z'-LYTE assay relative to control; conditions: Insect cell
[15] = biological target: Serine/threonine-protein kinase Sgk1 (Homo sapiens) (UniProt O00141); assay: Inhibition of recombinant human GST-tagged SGK (60-431 residues) expressed in insect cells at 2 uM using Ser/Thr 06 as substrate measured after 1 hr by Z'-LYTE assay relative to control; conditions: Insect cell
Sequence of Serine/threonine-protein kinase Sgk1 (Homo sapiens) (O00141 whole entry, the tested form may be a part): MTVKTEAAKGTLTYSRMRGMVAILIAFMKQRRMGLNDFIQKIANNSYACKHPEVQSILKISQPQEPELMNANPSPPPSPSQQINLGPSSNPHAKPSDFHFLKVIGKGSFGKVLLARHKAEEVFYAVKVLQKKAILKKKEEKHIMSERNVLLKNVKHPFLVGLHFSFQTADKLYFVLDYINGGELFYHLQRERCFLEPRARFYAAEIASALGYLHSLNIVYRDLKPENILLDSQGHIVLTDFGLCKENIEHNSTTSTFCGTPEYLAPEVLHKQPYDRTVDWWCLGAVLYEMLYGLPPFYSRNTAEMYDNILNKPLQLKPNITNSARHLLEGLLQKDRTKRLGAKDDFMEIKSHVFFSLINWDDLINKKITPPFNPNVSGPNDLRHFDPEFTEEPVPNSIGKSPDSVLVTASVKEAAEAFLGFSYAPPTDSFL

[16] = biological target: Serine/threonine-protein kinase Sgk3 (Homo sapiens) (UniProt Q96BR1); assay: Inhibition of recombinant human GST-tagged SGK3 (87-496 residues) expressed in insect cells at 2 uM using Ser/Thr 06 as substrate measured after 1 hr by Z'-LYTE assay relative to control; conditions: Insect cell
[17] = biological target: Serine/threonine-protein kinase 25 (Homo sapiens) (UniProt O00506); assay: Inhibition of recombinant human full length GST-tagged STK25 expressed in insect cells at 2 uM using Ser/Thr 07 as substrate measured after 1 hr by Z'-LYTE assay relative to control; conditions: Insect cell
Rat1 = assay: Inhibition of mTORC1 in rat Rat1 cells assessed as S6K phosphorylation at T389 level preincubated for 1 hrs in the presence of IGF-1 stimulation by immunoblot assay; assay type: cell-based; conditions: dose 0.01-2 µmol/L
HCT-116 [18] = assay: Induction of apoptosis in human HCT-116 cells assessed as reduction in S phase at 1 micromol/L incubated for 24 hrs by FACS analysis; assay type: functional, cell-based; conditions: dose 1.0 µmol/L
NCI-H1975 = assay: Induction of apoptosis in human NCI-H1975 cells assessed as increase in PARP cleavage at 0.3 to 3 micromol/L incubated for 48 hrs by Western blot analysis; assay type: functional, cell-based; conditions: dose 0.3-3 µmol/L
MDA-MB-361 [19] = assay: Induction of apoptosis in human MDA-MB-361 cells assessed as decrease in AKT phosphorylation at S473 level at 0.05 to 5 micromol/L incubated for 48 hrs by Western blot analysis; assay type: functional, cell-based; conditions: dose 0.05-5 µmol/L
MDA-MB-361 [20] = assay: Induction of apoptosis in human MDA-MB-361 cells assessed as increase in G1 phase at 5 micromol/L incubated for 24 hrs by FACS analysis relative to control; assay type: functional; conditions: dose 5 µmol/L, at 5 µM
HCT-116 [21] = assay: Antitumor activity against human HCT-116 cells xenografted in female nude mouse model assessed as suppression in P-AKT at S473 level at 50 mg/kg, iv administered once a week and measured at least 8 hrs by immunoblot analysis; assay type: functional, organism-based
MDA-MB-361 [22] = assay: Antitumor activity against human MDA-MB-361 cells xenografted in female nude mouse model assessed as substantial regression in tumor at 50 mg/kg, po qd administered as 5 days on/2 days off regimen for 4 cycles; assay type: functional, organism-based; conditions: time 28.0 day
mTORC2 (Homo sapiens) = mTORC2 (Homo sapiens) (UniProt P42345+Q6R327+Q9BVC4+Q9BPZ7); conditions: PC3MM2, dose 0.1-1 µM, time 6.0 hrs

CNC(=O)Nc1ccc(-c2nc(N3CC4CCC(C3)O4)c3cnn(C4CCC5(CC4)OCCO5)c3n2)cc1
IC50 [1]: > 10 µM | inhibition [2]: 1% | inhibition [3]: 2% | inhibition [4]: 3% | inhibition [5]: 7% | inhibition [6]: 1% | inhibition [7]: 4% | inhibition [8]: 13% | inhibition [9]: 7% | inhibition [10]: 10% | inhibition [11]: -3% | inhibition [12]: -2% | inhibition [13]: 1% | inhibition [14]: 2% | inhibition [15]: -2% | inhibition [16]: 3% | inhibition [17]: 2% | inhibition (Rat1): Active | Activity (HCT-116 [18]): Active | Activity (NCI-H1975): Active | Activity (MDA-MB-361 [19]): Active | Activity (MDA-MB-361 [20]): 12% | Activity (HCT-116 [21]): Active | Activity (MDA-MB-361 [22]): Active | inhibition (mTORC2 (Homo sapiens)): Active
